Data reported in ChEMBL document CHEMBL6182949 (J Med Chem, 2025).

Experiments:
[1] = target: T1, Protein cereblon/Interleukin-1 receptor-associated kinase 4 (Homo sapiens, UniProt Q9NWZ3+Q96SW2); test: PROTAC activity at CRBN/IRAK4 in human THP-1 cells assessed as induction of IRAK4 degradation incubated for 24 hrs by HiBiT lytic reagent based analysis; type: cell-based
Target sequence in this assay (Q9NWZ3 whole entry): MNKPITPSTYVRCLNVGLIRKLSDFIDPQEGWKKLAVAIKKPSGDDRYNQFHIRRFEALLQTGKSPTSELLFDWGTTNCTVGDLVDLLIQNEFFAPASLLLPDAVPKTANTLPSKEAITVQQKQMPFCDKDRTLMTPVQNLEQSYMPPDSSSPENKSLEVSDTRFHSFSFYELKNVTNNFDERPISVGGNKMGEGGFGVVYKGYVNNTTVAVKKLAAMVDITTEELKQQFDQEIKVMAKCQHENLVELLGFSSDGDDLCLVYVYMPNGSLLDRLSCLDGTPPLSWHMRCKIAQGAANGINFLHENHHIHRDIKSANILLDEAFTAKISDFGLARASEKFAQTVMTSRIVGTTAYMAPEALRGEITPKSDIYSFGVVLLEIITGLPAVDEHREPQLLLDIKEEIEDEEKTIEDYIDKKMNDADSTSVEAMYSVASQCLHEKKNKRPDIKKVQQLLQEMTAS
Target sequence in this assay (Q96SW2 whole entry): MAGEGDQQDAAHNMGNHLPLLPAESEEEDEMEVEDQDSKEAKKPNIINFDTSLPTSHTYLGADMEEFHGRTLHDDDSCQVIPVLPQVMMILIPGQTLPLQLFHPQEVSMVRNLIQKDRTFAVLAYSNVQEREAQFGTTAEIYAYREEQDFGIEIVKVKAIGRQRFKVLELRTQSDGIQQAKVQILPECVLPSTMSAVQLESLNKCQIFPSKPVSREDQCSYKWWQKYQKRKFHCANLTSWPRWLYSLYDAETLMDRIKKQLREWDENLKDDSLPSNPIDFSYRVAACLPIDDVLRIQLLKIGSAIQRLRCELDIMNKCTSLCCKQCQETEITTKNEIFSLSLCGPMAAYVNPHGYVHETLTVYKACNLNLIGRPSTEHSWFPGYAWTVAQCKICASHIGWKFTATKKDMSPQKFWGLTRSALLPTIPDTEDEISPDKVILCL

[2] = target: T1, Protein cereblon/Interleukin-1 receptor-associated kinase 4; test: PROTAC activity at CRBN/IRAK4 in human THP-1 cells assessed as induction of IRAK4 degradation incubated for 24 hrs by HiBiT lytic reagent based analysis relative to control; type: cell-based
Target sequence in this assay (Q96SW2 whole entry, looked up): as the sequence (Q96SW2 whole entry) above
Target sequence in this assay (Q9NWZ3 whole entry, looked up): as the sequence (Q9NWZ3 whole entry) above

[3] = Metabolic stability in human liver microsome assessed as half life at 1 uM measured up to 60 mins in presence of NADPH by LC-MS/MS analysis; type: ADME; conditions: liver microsomes
[4] = Metabolic stability in cynomolgus monkey liver microsome assessed as half life at 1 uM measured up to 60 mins in presence of NADPH by LC-MS/MS analysis; type: ADME, Macaca fascicularis; conditions: liver microsomes
[5] = Metabolic stability in dog liver microsome assessed as half life at 1 uM measured up to 60 mins in presence of NADPH by LC-MS/MS analysis; type: ADME, Canis lupus familiaris; conditions: liver microsomes
[6] = Metabolic stability in rat liver microsome assessed as half life at 1 uM measured up to 60 mins in presence of NADPH by LC-MS/MS analysis; type: ADME; conditions: liver microsomes
[7] = Metabolic stability in mouse liver microsome assessed as half life at 1 uM measured up to 60 mins in presence of NADPH by LC-MS/MS analysis; type: ADME; conditions: liver microsomes
hERG (KCNH2) [8] = target: T2, hERG (KCNH2) (Homo sapiens, UniProt Q12809); test: Inhibition of hERG expressed in HEK293 cells at 1 uM by manual patch clamp assay relative to control; type: toxicity, cell-based; conditions: HEK293 cells expressing hERG
T2 sequence (Q12809 whole entry): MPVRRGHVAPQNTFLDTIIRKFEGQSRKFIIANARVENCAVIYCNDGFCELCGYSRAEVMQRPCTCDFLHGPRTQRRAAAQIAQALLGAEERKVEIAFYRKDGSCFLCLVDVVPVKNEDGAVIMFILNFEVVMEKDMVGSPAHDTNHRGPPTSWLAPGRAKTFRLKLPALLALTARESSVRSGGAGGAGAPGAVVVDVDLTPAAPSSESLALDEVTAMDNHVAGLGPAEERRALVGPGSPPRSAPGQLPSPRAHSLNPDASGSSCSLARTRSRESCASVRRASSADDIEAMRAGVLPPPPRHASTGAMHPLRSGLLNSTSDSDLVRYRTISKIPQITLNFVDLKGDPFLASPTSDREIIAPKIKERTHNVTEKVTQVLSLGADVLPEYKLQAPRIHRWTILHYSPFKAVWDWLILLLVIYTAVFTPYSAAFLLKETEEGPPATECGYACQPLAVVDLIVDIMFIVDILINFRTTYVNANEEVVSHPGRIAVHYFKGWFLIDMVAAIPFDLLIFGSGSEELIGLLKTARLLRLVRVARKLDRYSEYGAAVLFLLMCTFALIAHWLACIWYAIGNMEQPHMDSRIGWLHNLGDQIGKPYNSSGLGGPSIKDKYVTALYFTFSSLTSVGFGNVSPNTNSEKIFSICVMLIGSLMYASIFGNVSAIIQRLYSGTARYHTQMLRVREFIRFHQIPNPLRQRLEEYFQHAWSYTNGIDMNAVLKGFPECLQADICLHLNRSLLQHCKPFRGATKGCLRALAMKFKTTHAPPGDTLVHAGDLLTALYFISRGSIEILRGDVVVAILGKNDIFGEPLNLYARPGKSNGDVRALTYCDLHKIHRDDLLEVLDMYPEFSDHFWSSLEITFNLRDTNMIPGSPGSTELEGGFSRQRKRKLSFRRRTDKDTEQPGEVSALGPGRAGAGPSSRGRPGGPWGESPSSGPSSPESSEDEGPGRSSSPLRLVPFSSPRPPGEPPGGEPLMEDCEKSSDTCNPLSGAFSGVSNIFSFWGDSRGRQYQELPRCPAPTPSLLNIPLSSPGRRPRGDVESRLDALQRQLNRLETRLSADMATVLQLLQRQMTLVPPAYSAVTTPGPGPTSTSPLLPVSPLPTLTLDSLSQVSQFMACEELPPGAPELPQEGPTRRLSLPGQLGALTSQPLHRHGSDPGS

hERG (KCNH2) [9] = target: T2, hERG (KCNH2); test: Inhibition of hERG expressed in HEK293 cells at 3 uM by manual patch clamp assay relative to control; type: toxicity, cell-based; conditions: HEK293 cells expressing hERG
[10] = target: Voltage-gated inwardly rectifying potassium channel KCNH2 (Homo sapiens, UniProt Q12809); test: Inhibition of hERG expressed in HEK293 cells by manual patch clamp assay; type: toxicity, cell-based; design: concentration or dose not given beside the values
Chain of Voltage-gated inwardly rectifying potassium channel KCNH2 (Q12809 whole entry): as above

[11] = Cmax in male C57BL/6 mouse at 2 mg/kg, iv measured up to 24 hrs by LC-MS/MS analysis; type: ADME, organism-based; conditions: in vivo
[12] = AUClast in male C57BL/6 mouse at 2 mg/kg, iv measured up to 24 hrs by LC-MS/MS analysis; type: ADME, organism-based; conditions: in vivo
[13] = Half life in male C57BL/6 mouse at 2 mg/kg, iv measured up to 24 hrs by LC-MS/MS analysis; type: ADME, organism-based; conditions: in vivo
[14] = Clearance in male C57BL/6 mouse at 2 mg/kg, iv measured up to 24 hrs by LC-MS/MS analysis; type: ADME, organism-based; conditions: in vivo
[15] = Volume of distribution at steady state in male C57BL/6 mouse at 2 mg/kg, iv measured up to 24 hrs by LC-MS/MS analysis; type: ADME, organism-based; conditions: in vivo, read-out: Vdss
[16] = Tmax in male C57BL/6 mouse at 10 mg/kg, po measured up to 24 hrs by LC-MS/MS analysis; type: ADME, organism-based; conditions: in vivo
[17] = Cmax in male C57BL/6 mouse at 10 mg/kg, po measured up to 24 hrs by LC-MS/MS analysis; type: ADME, organism-based; conditions: in vivo
[18] = AUClast in male C57BL/6 mouse at 10 mg/kg, po measured up to 24 hrs by LC-MS/MS analysis; type: ADME, organism-based; conditions: in vivo
[19] = Half life in male C57BL/6 mouse at 10 mg/kg, po measured up to 24 hrs by LC-MS/MS analysis; type: ADME, organism-based; conditions: in vivo
[20] = Oral bioavailability in male C57BL/6 mouse at 10 mg/kg measured up to 24 hrs by LC-MS/MS analysis; type: ADME, organism-based; conditions: in vivo

DC50 [1] [nM] | Emax [2] [%] | half-life at 1 µM [3] [min] | half-life at 1 µM [4] [min] | half-life at 1 µM [5] [min] | half-life at 1 µM [6] [min] | half-life at 1 µM [7] [min] | SMILES | inhibition at 3 µM (hERG (KCNH2) [9]) [%] | further results
– | 88 | > 184 | – | > 184 | – | > 184 | Cn1c(=O)n(C2CCC(=O)NC2=O)c2cccc(C#CCO[C@H]3CC[C@](F)(CN4CCC5(CC4)Cc4cc(NC(=O)c6cnn7cccnc67)c(N6CCC(CO)CC6)cc4O5)CC3)c21 (stereo not given in full) | 8 | –
2.18 | 88 | 23 | 2 | 88 | 88 | > 184 | Cn1c(=O)n(C2CCC(=O)NC2=O)c2cccc(C#CCOC3CCN(CCN4CCC5(CC4)Cc4cc(NC(=O)c6cnn7cccnc67)c(N6CCC(CO)CC6)cc4O5)CC3)c21 (stereo not given) | – | –
1.52 | 87 | > 184 | – | > 184 | – | > 184 | Cc1cnc2c(C(=O)Nc3cc4c(cc3N3CCC(CO)CC3)OC3(CCN(C[C@H]5CC[C@H](OCC#Cc6cccc7c6n(C)c(=O)n7C6CCC(=O)NC6=O)CC5)CC3)C4)cnn2c1 (stereo not given in full) | 17 | –
1.53 | 95 | 50 | 70 | > 184 | 42 | 39 | Cn1c(=O)n(C2CCC(=O)NC2=O)c2cccc(CN3CCC4(CC3)CN(CCN3CCC5(CC3)Cc3cc(NC(=O)c6cnn7cccnc67)c(N6CCC(CO)CC6)cc3O5)C4)c21 (stereo not given) | – | inhibition (INH) [10]: 34%
1.17 | 89 | – | – | – | – | – | Cn1c(=O)n(C2CCC(=O)NC2=O)c2cccc(C#CCOCCNCCN3CCC4(CC3)Cc3cc(NC(=O)c5cnn6cccnc56)c(N5CCC(CO)CC5)cc3O4)c21 (stereo not given) | – | inhibition (INH) [10]: 8%
1.09 | 92 | 44 | 13 | 93 | 49 | 66 | Cn1c(=O)n(C2CCC(=O)NC2=O)c2cccc(CN3CCC(CCN4CCC5(CC4)Cc4cc(NC(=O)c6cnn7cccnc67)c(N6CCC(CO)CC6)cc4O5)CC3)c21 (stereo not given) | – | inhibition (INH) [10]: 28%
2.81 | 89 | > 184 | 64 | > 184 | 147 | 119 | Cn1c(=O)n(C2CCC(=O)NC2=O)c2cccc(C#CCO[C@H]3CC[C@H](CN4CCC5(CC4)Cc4cc(NC(=O)c6cnn7cc(C#N)cnc67)c(N6CCC(CO)CC6)cc4O5)CC3)c21 (stereo not given in full) | 29 | –
2 | 84 | 100 | – | > 184 | – | > 184 | Cn1c(=O)n(C2CCC(=O)NC2=O)c2cccc(C#CCO[C@H]3CC[C@H](CN4CCC5(Cc6cc(NC(=O)c7cnn8cccnc78)c(N7CCC(CO)CC7)cc6O5)C4)CC3)c21 (stereo not given in full) | – | inhibition at 1 µM (hERG (KCNH2) [8]): 1%
2.27 | 87 | > 184 | 112 | > 184 | 126 | 78 | Cn1c(=O)n(C2CCC(=O)NC2=O)c2cccc(C#CCO[C@H]3CC[C@H](CN4CCC5(CC4)Cc4cc(NC(=O)c6cnn7cc(Cl)cnc67)c(N6CCC(CO)CC6)cc4O5)CC3)c21 (stereo not given in full) | 2 | –
1.86 | 68 | – | – | – | – | – | Cn1c(=O)n(C2CCC(=O)NC2=O)c2cccc(CCCOCCNCCN3CCC4(CC3)Cc3cc(NC(=O)c5cnn6cccnc56)c(N5CCC(CO)CC5)cc3O4)c21 (stereo not given) | – | inhibition (INH) [10]: 2%
2.77 | 78 | – | – | – | – | – | Cn1c(=O)n(C2CCC(=O)NC2=O)c2cccc(C#CCO[C@H]3CC[C@H](CN4CCC5(CC4)Cc4cc(NC(=O)c6cnn7cccnc67)c(N6CCC(CO)CC6)cc4C5)CC3)c21 (stereo not given in full) | 46 | –
4.06 | 90 | > 184 | – | > 184 | – | > 184 | Cn1c(=O)n(C2CCC(=O)NC2=O)c2cccc(C#CCO[C@H]3CC[C@H](CN4CCC5(CC4)Cc4cc(NC(=O)c6cnc7cccnn67)c(N6CCC(CO)CC6)cc4O5)CC3)c21 (stereo not given in full) | – | inhibition at 1 µM (hERG (KCNH2) [8]): 15%; Cmax [11]: 1230 ng/mL; AUC(0-t) at 24 h [12]: 3190 ng·h/mL; half-life [13]: 585 min; clearance [14]: 9.75 mL/min/kg; Vd [15]: 1.66 L/kg; Tmax [16]: 2 h; Cmax [17]: 1190 ng/mL; AUC(0-t) at 24 h [18]: 7390 ng·h/mL; half-life [19]: 264 min; bioavailability [20]: 54%
3.32 | 90 | > 184 | > 184 | > 184 | > 184 | 78 | Cn1c(=O)n(C2CCC(=O)NC2=O)c2cccc(C#CCO[C@H]3CC[C@H](CN4CCC5(CC4)Cc4cc(NC(=O)c6cnn7cc(CO)cnc67)c(N6CCC(CO)CC6)cc4O5)CC3)c21 (stereo not given in full) | – | inhibition at 1 µM (hERG (KCNH2) [8]): 4%
1.66 | 95 | – | – | – | – | – | Cn1c(=O)n(C2CCC(=O)NC2=O)c2cccc(CN3CC4(CCN(CCN5CCC6(CC5)Cc5cc(NC(=O)c7cnn8cccnc78)c(N7CCC(CO)CC7)cc5O6)CC4)C3)c21 (stereo not given) | – | inhibition (INH) [10]: 6%

SMILES | DC50 [1] [nM] | Emax [2] [%] | half-life at 1 µM [3] [min] | half-life at 1 µM [4] [min] | half-life at 1 µM [5] [min] | half-life at 1 µM [6] [min] | half-life at 1 µM [7] [min] | inhibition at 3 µM (hERG (KCNH2) [9]) [%] | further results
Cn1c(=O)n(C2CCC(=O)NC2=O)c2cccc(C#CCO[C@H]3CC[C@@H](CN4CCC5(CC4)Cc4cc(NC(=O)c6cnn7cccnc67)c(N6CCC(CO)CC6)cc4O5)CC3)c21 (stereo not given in full) | 3.44 | 89 | 49 | 11 | 1 | 88 | 119 | – | inhibition at 1 µM (hERG (KCNH2) [8]): 34%
Cn1c(=O)n(C2CCC(=O)NC2=O)c2cccc(C#CCN3CCN(CC(=O)N4CCC5(CC4)Cc4cc(NC(=O)c6cnn7cccnc67)c(N6CCC(CO)CC6)cc4O5)CC3)c21 (stereo not given) | 2.76 | – | 3 | – | 73 | – | 84 | 18 | –
Cn1c(=O)n(C2CCC(=O)NC2=O)c2cccc(C#CCOC3CCN(CC(=O)N4CCC5(CC4)Cc4cc(NC(=O)c6cnn7cccnc67)c(N6CCC(CO)CC6)cc4O5)CC3)c21 (stereo not given) | 2.18 | – | 9 | – | 12 | – | 100 | 8 | –
